Laboratory results taken from paper PMC12081876, “Identification of PTGR2 inhibitors as a new therapeutic strategy for diabetes and obesity” (EMBO Molecular Medicine, 2025).
“And” between values parts separate entries of the source, which are not always exact repeats. Equal values may be shown once. Values belong to the compound of their own block, whether it stands above or below them.

How the values were obtained:
[1] = tested on: PPARγ-null 3T3-L1 clones rescued with wild-type mPPARγ; test: Insulin-stimulated glucose uptake in PPARγ-null 3T3-L1 clones rescued with wild-type mPPARγ; assay type: cell-based, mouse; details: for insulin-stimulated glucose uptake, Fig 1P left panel replicates: rescued with wild-type mPPARγ
Protocol: (§1) Gene editing was performed in 3T3-L1 preadipocytes using the clustered regularly interspaced short palindromic repeats (CRISPR)/Cas9 system. Two single-guide RNAs (sgRNA) (Appendix Table S5) targeting exon 6 of mouse Pparγ were designed using a web-based design tool (http://crispr.mit.edu/). These oligonucleotides were cloned into the pSurrogate reporter and pAll-Cas9.Ppuro vector obtained from Academia Sinica, Taiwan. The pSurrogate reporter contains an EGFP and an out-of-frame mCherry downstream of the sgRNA; the pAll-Cas9.Ppuro vector expresses Cas9 nuclease and sgRNA. Once a double-strand breaking at the target site in pSurrogate reporter plasmid was created by Cas9, insertions and deletions (indels) could be introduced at the cleaved site. The indels cause frameshifts and result in the expression of the mCherry gene. 3T3-L1 preadipocytes were co-transfected with pSurrogate reporter and pAll-Cas9.Ppuro vectors at 80-90% confluency using PolyJet™ transfection reagent (cat. no. SL100688, SignaGen Laboratories, USA). Two days after transfection, EGFP/mCherry double-positive cells were enriched by fluorescent-activated cell sorting. Single cells were isolated and expanded. The genomic DNA was amplified by PCR and sequenced to confirm the knockout cell lines. The primer sequences are shown in Appendix Table S5.
(§2) The mPPARγ C313A DNA sequence was amplified from pCMV6-Pparg C313A and subcloned into the pLVX-IRES-Neo vector with XhoI/NotI restriction sites. The lentiviral expression plasmids, pMD.G, and pCMVΔR8.91 (RNAi Core, Academia Sinica, Taiwan), were co-transfected into HEK293T cells. […] HSP70 was probed with an anti-HSP70 antibody (cat. no. ab45133, Abcam) as a loading control.
(§3) Differentiated 3T3-L1 cells were starved with serum-free DMEM containing 0.2% BSA (cat. no. A9647, Sigma-Aldrich). […] Uptake of 2DG was terminated by rapidly removing medium and washing with ice-cold PBS three times. Cells were lysed with 0.1% SDS, and the radioactivity was measured using a liquid scintillation counter. Insulin-mediated glucose uptake was calculated by subtracting insulin-treated glucose uptake with basal glucose uptake.

[2] = tested on: PPARγ-null 3T3-L1 clones rescued with mutant mPPARγ (C313A); test: Insulin-stimulated glucose uptake in PPARγ-null 3T3-L1 clones rescued with mutant mPPARγ (C313A); assay type: cell-based, mouse; details: for insulin-stimulated glucose uptake, Fig 1P right panel replicates: rescued with mPPARγ C313A
Protocol: as §1, §2, §3

hPTGR2 [3] = target: T1, hPTGR2 (Homo sapiens, UniProt Q8N8N7); test: 15-keto-PGE2-dependent PPARγ trans-activation in PTGR2-transfected HEK293T cells; assay type: cell-based; design: expressed in transfected cells; host or cells: HEK293T; details: for Figure 5C relative PPARγ trans-activation (replicates): (+) Ptgr2
Description: Based on these findings from the Ptgr2^−/− mice, we next searched for druggable chemical inhibitors that can effectively suppress human PTGR2 (hPTGR2) enzymatic activity. Using a high-throughput screening of 12,500 chemicals, we identified 31 hits and generated 282 derivatives using a molecular hybridization strategy among the hits. The in vitro IC50 (the half-maximal inhibitory concentration), EC50 (the concentration for half-maximal effect), and the compound’s activity to restore 15-keto-PGE2-dependent PPARγ trans-activation in HEK293T cells expressing recombinant PTGR2 were profiled.
Gal4-PPARγ/UAS-LUC reporter assay was conducted as previously described (Wu et al, [2008]) with minor modifications. Briefly, HEK293T cells were seeded in 24-well plates at 1 × 10^5 cells/well. After 24-h growth, a DNA solution containing UASG reporter construct, GAL4-PPAR expression plasmid, and TK-Rluc (Renilla luciferase) reporter construct (internal control) was transfected using TurboFect™ transfection reagent (cat. no. R0532, Thermo Fisher). Cells were treated and harvested after another 24 and 48 h, respectively. Luciferase activity was measured using Luc-Pair™ Duo-Luciferase HS Assay Kit (cat. no. LF600, Promega) and normalized with the TK reporter signal.

hPTGR2 [4] = target: T1, hPTGR2; test: Enzyme kinetics (Lineweaver–Burk) of hPTGR2 with 15-keto-PGE2; assay type: biochemical; design: made in house
[5] = tested on: HFHSD-fed obese C57BL6/J mice; test: Tissue weights (fat pads, liver, BAT); assay type: in vivo, mouse; design: Inguinal fat weight (Figure 5N): unit not given here
[6] = tested on: HFHSD-fed obese C57BL6/J mice; test: Adipocyte size and number in perigonadal fat (H&E stain); assay type: in vivo, mouse; details: vs vehicle
Description: Tissues were fixed in 4% paraformaldehyde and then embedded in paraffin before sectioning and staining. The stained sections were scanned and analyzed using a MIRAX viewer (http://www.zeiss.de/mirax) and Image J software (http://rsbwed.nih.gov/ij/).

[7] = Figure 2J, individual mice, listed as 15kPGE2, in g (unit assumed)
[8] = individual animals, in g (unit assumed)

T1 sequence (Q8N8N7 whole entry): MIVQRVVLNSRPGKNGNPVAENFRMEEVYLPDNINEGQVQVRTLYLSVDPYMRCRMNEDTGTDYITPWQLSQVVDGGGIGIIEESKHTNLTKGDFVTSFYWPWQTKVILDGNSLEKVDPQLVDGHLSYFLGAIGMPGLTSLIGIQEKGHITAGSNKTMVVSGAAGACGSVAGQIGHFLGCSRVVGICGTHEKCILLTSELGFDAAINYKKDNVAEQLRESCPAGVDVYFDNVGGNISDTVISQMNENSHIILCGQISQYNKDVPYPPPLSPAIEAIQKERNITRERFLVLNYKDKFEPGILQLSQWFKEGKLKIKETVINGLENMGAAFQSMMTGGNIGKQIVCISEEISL

SMILES: CCCCCC(=O)CC[C@H]1[C@H](O)CC(=O)[C@@H]1C/C=C\CCCC(=O)O [13,14-dihydro-15-keto-PGE2]
insulin-stimulated glucose uptake, Fig 1P left panel replicates ([1]; 1314-dihydro-15kPGE2 5): 0.5765 and 0.8817 and 0.585 and 1.089
insulin-stimulated glucose uptake, Fig 1P right panel replicates ([2]; 1314-dihydro-15kPGE2 5): 1.243 and 2.598 and 0.703

SMILES: Cc1[nH]c2nc(C(C)N3CCN(c4ccccc4)CC3)nn2c(=O)c1Cc1ccc(F)cc1 (stereo not drawn) [BPRPT245]
Figure 5C relative PPARγ trans-activation (replicates) (hPTGR2 [3]; 16nM): 0.5809 and 0.5894 and 0.6256 and 0.6099 and 0.5702
Figure 5C relative PPARγ trans-activation (replicates) (hPTGR2 [3]; 80nM): 0.8628 and 0.8769 and 0.8751 and 0.836 and 0.7826
Figure 5C relative PPARγ trans-activation (replicates) (hPTGR2 [3]; 400nM): 0.9481 and 0.8913 and 0.9158 and 0.7904 and 0.8206
Figure 5C relative PPARγ trans-activation (replicates) (hPTGR2 [3]; 2uM): 0.9154 and 0.9224 and 0.8575 and 0.8409 and 0.8698
Figure 5C relative PPARγ trans-activation (replicates) (hPTGR2 [3]; 10uM, (-) Ptgr2 about 1, (+) Ptgr2 alone 0.41-0.61): 0.9406 and 0.9982 and 0.9802 and 0.9197 and 0.9012

Km (hPTGR2 [4]; read-out: Km between 15-keto-PGE2 and hPTGR2, without BPRPT0245): 29.1 ± 0.77 µM
SMILES: CCCCCC(=O)/C=C/[C@H]1[C@H](O)CC(=O)[C@@H]1C/C=C\CCCC(=O)O [15-keto-PGE2, 15-keto-prostaglandin E2]
insulin-stimulated glucose uptake, Fig 1P left panel replicates ([1]; 15kPGE2 1): 0.8065 and 0.6857 and 0.06677 and 0.8595
insulin-stimulated glucose uptake, Fig 1P left panel replicates ([1]; 15kPGE2 5): 1.281 and 2.22 and 0.9527 and 1.646
insulin-stimulated glucose uptake, Fig 1P left panel replicates ([1]; 15kPGE2 10): 2.206 and 2.06 and 1.8139 and 2.125
insulin-stimulated glucose uptake, PPARγ-null clone rescued with wild-type mPPARγ ([1]; clone #1296): enhanced insulin-stimulated glucose uptake in clone # 1296 when rescued with wild-type mPPARγ
White fat mass ([5]; 40 mg/kg/day ip, 3 weeks, HFHSD-fed mice, vs vehicle): reduced
BAT weight [5, 7]: 0.1049 and 0.0893 and 0.0681 and 0.1024 and 0.0901 and 0.0904 and 0.0815 and 0.0934 and 0.1303 and 0.0871 and 0.1289 and 0.0981 and 0.1279
gonadal fat weight [5, 7]: 1.0948 and 0.4418 and 0.5418 and 0.586 and 0.6631 and 0.6417 and 0.7873 and 0.8763 and 0.4217 and 0.3751 and 0.7101 and 0.437 and 1.2399 and 1.5271
inguinal fa (inguinal fat weight) [5, 7]: 0.5361 and 0.3262 and 0.2899 and 0.5695 and 0.44 and 0.4775 and 0.4155 and 0.4527 and 0.3306 and 0.2941 and 0.47 and 0.5739 and 0.6454 and 0.6994
liver weight [5, 7]: 1.4646 and 1.5001 and 1.364 and 1.198 and 1.291 and 1.4569 and 1.3602 and 1.5387 and 1.535 and 1.2853 and 1.4911 and 1.7319 and 1.4367 and 1.4078
mesneteric fat weight [5, 7]: 0.4239 and 0.1584 and 0.1617 and 0.203 and 0.2549 and 0.1777 and 0.3522 and 0.3152 and 0.191 and 0.1812 and 0.1041 and 0.3498 and 0.3664 and 0.5006
insulin-stimulated glucose uptake, Fig 1P right panel replicates ([2]; 15kPGE2 1): 0.9792 and 1.801 and 3.6878 and 1.466
insulin-stimulated glucose uptake, Fig 1P right panel replicates ([2]; 15kPGE2 5): 0.4664 and 1.615 and 2.026 and 0.6338
insulin-stimulated glucose uptake, Fig 1P right panel replicates ([2]; 15kPGE2 10): 0.2762 and 1.684 and 2.97 and 1.874
insulin-stimulated glucose uptake, PPARγ-null clone rescued with mutant mPPARγ (C313A) ([2]; clone #1296): not when rescued with mutant mPPARγ (C313A)
adipocyte size ([6]; 40 mg/kg/day ip): smaller
number of adipocytes ([6]; 40 mg/kg/day ip): no difference

SMILES: Cc1[nH]c2nc(C(C)N3CCN(c4ccccc4)CC3)nn2c(=O)c1Cc1ccc(F)cc1 (stereo not drawn) [BPRPT0245]
EC50 (hPTGR2 [3]; restoring 15-keto-PGE2-dependent PPARγ trans-activation, HEK293T expressing recombinant PTGR2): 0.0492 µM
mode of inhibition (Lineweaver–Burk plot) (hPTGR2 [4]; BPRPT0245 50 nM): competitive hPTGR2 inhibitor
Lineweaver-Burk plot value, average (Figure 5H) (hPTGR2 [4]; BPRPT0245 50 nM, 15-keto-PGE2(um) 0.01): 0.05189
Lineweaver-Burk plot value, average (Figure 5H) (hPTGR2 [4]; BPRPT0245 50 nM, 15-keto-PGE2(um) 0.0142857): 0.06506
Lineweaver-Burk plot value, average (Figure 5H) (hPTGR2 [4]; BPRPT0245 50 nM, 15-keto-PGE2(um) 0.02): 0.06763
Lineweaver-Burk plot value, average (Figure 5H) (hPTGR2 [4]; BPRPT0245 50 nM, 15-keto-PGE2(um) 0.025): 0.07832
Lineweaver-Burk plot value, average (Figure 5H) (hPTGR2 [4]; BPRPT0245 50 nM, 15-keto-PGE2(um) 0.0333333): 0.1063
Lineweaver-Burk plot value, average (Figure 5H) (hPTGR2 [4]; BPRPT0245 50 nM, 15-keto-PGE2(um) 0.05): 0.1377
Lineweaver-Burk plot value, average (Figure 5H) (hPTGR2 [4]; BPRPT0245 50 nM, 15-keto-PGE2(um) 0.1): 0.2333
Vmax (change on addition of inhibitor) (hPTGR2 [4]; with BPRPT0245 50 nM): remained unchanged
white fat mass and liver mass ([5]; 100 mg/kg/day oral, HFHSD-fed mice, vs vehicle): significantly reduced
Inguinal fat weight (Figure 5N) ([5]; individual animals): 3.1135 and 2.4997 and 3.7598 and 1.225 and 2.118 and 3.7874 and 2.0547 and 1.3489 and 2.0692 and 1.6337
BAT weight (Figure 5N) [5, 8]: 0.1698 and 0.1291 and 0.2802 and 0.1132 and 0.1765 and 0.2813 and 0.0604 and 0.0923 and 0.1293
Liver weight (Figure 5N) [5, 8]: 1.4298 and 1.1221 and 1.8053 and 1.0426 and 1.3688 and 2.9793 and 1.3504 and 1.1836 and 1.2693 and 1.0805
Mesenteric fat weight (Figure 5N) [5, 8]: 1.0785 and 0.4119 and 1.0515 and 0.3617 and 0.4577 and 1.3111 and 0.5735 and 0.369 and 0.413 and 0.3561
Perigonadal fat weight (Figure 5N) [5, 8]: 2.771 and 2.393 and 3.067 and 1.288 and 2.096 and 2.817 and 2.396 and 1.58 and 2.043 and 2.048
adipocyte number ([6]; 100 mg/kg/day oral): not changed
adipocyte size ([6]; 100 mg/kg/day oral): reduced
